Test results taken from US11304965B2, “Flavonoid compositions and related methods” (INSTITUTO DE INVESTIGACIONES CIENTIFICAS Y SERVICIOS DE …, priority 2017, dated 2022).

Tests used:
Type in all cases: cell-based
[1] = biological target: T1, human AT2 receptor (Homo sapiens, UniProt P50052); assay: Aequorin bioluminescence intracellular calcium assay, CHO-AEQ-AT2 cells; settings: CHO-AEQ cells expressing AT2; samples 100 μg/ml; compared with angiotensin II; FIG. 19
T1 construct: pcDNA3.1+ plasmid DNA into which had been inserted the coding region for human AT1, AT2, or ETB receptor; expressed in transfected cells; host or cells: CHO-AEQ (Chinese hamster ovary cells stably expressing aequorin), transient transfection with Fugene HD
T1 sequence (P50052 1-363): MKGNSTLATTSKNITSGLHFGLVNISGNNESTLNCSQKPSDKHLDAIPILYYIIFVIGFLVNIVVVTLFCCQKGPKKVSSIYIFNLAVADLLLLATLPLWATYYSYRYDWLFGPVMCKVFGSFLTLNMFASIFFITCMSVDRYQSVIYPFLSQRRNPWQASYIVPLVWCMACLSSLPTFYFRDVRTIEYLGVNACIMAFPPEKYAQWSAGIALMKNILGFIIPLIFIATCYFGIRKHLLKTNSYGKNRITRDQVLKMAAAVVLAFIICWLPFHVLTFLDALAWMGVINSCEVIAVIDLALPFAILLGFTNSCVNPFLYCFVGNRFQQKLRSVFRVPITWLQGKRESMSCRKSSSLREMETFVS
Description: (§1) To investigate the vasculoprotective, neuroprotective, and/or antihypertensive properties of Cecropia extracts, Chinese hamster ovary cells that had been stably transfected with aequorin (CHO-AEQ cells) were transiently transfected with various G-protein coupled receptors.
(§2) More particularly, CHO-AEQ cells were cultured in Dulbecco's Modified Eagle's Medium (DMEM) containing 10% fetal bovine serum as previously described (Vanderheyden et al., 126 Br J Pharmacol 1057-1065 (1999)). At 75% confluency, these cells were transiently transfected with pcDNA3.1+ plasmid DNA into which had been inserted the coding region for human AT1, AT2, or ETB receptor. The transient transfection was performed with Fugene HD® following the manufacturers' instructions (2 μg DNA to 7 μl Fugene HD® in Opti-MEM® medium. After transfection, the cells were cultured for an additional day, after which they were harvested and loaded with coelenterazine-h.
(§3) Intracellular calcium can be detected based on the interaction of calcium ions with the calcium binding bioluminescent complex aequorin. Upon calcium binding, aequorin oxidizes coelenterazine-h into coelenteramide with production of CO2 and emission of light (466 nm) (Le Poul et al., 7 J Biomol Screen 57-65 (2002). The CHO-AEQ cells that had been transiently transfected with human AT1, human AT2 or human ETB receptors were used in a bioluminescence assay to evaluate whether—and to what extent—material isolated from Cecropia obtusifolia could perturb G-protein coupled receptor(s).
(§4) Confluent CHO-AEQ cells that were grown and transfected in 75 cm^2 culture flasks were harvested by a brief treatment with a trypsin/EDTA solution, centrifuged, and resuspended in DMEM-F12 cell culture medium containing 0.1% BSA and denoted as assay buffer, at a cell density of 2.5×10^6 cells/ml. Subsequently, coelenterazine-h was added to the cell suspension to a final concentration of 5 μM. Cells were then incubated between 14 h and 18 h at room temperature in the dark under gentle shaking. After this loading step, 15 ml of assay buffer was added to the cells and then centrifuged for 7 min at 1100 rpm in a swinging bucket centrifuge. The resulting cell pellets were gently resuspended in assay buffer containing 1 μM coelenterazine-h at a cell density of 5×10^5 cells/ml. After a further incubation of 1.5 h at room temperature, the cell suspension was distributed at 100 μl/well in white Cellstar 96-well plates.
To assess the activity of the compounds derived from Cecropia obtusifolia extracts, lyophilized crude extract (and compounds that had been identified in the extract) were dissolved in DMSO at 1 mg/ml, and then further diluted in assay buffer to 100 μg/ml (final concentration) (Caballero-George et al., 4 Curr. Trends Biotechnol Pharm 881-899 (2010)). A […] was then added to each well containing the transiently transfected cells. For comparison, control peptides were diluted in assay buffer to a final concentration of 0.1 μM angiotensin II or 10 nM endothelin-1. These control peptides are known to cause a transient rise in cytosolic calcium. The agonist solutions were loaded in the cell injector of a Victor spectrophotometer, and a 96-well plate was inserted.
(§5) Measurements were initiated by injecting 50 μl solution/well, and the bioluminescence was recorded every 200 ms for 120 cycles. To account for slight variations in cell number, a final concentration of 10 μM ATP was added by a second injector to the cells (50 μl/well) and the resulting response was measured.
The effects were quantified by calculation of the area under the curves by integration of the obtained transient responses using GraphPad Prism 5™. The activation of the AT1, AT2, or ETB receptors was expressed as a fractional response. This is obtained by dividing the agonist response by the sum of the agonist and ATP response for each well (i.e., agonist response/(ATP+agonist response)). […]

[2] = biological target: T2, human AT1 receptor (Homo sapiens, UniProt P30556); assay: Aequorin bioluminescence intracellular calcium assay, CHO-AEQ-AT1 cells (inhibition of angiotensin II); settings: CHO-AEQ cells expressing AT1; 100 nM angiotensin II; samples 100 μg/ml; compared with losartan; FIG. 21
T2 construct: pcDNA3.1+ plasmid DNA into which had been inserted the coding region for human AT1, AT2, or ETB receptor; expressed in transfected cells; host or cells: CHO-AEQ (Chinese hamster ovary cells stably expressing aequorin), transient transfection with Fugene HD
T2 sequence (P30556 1-359): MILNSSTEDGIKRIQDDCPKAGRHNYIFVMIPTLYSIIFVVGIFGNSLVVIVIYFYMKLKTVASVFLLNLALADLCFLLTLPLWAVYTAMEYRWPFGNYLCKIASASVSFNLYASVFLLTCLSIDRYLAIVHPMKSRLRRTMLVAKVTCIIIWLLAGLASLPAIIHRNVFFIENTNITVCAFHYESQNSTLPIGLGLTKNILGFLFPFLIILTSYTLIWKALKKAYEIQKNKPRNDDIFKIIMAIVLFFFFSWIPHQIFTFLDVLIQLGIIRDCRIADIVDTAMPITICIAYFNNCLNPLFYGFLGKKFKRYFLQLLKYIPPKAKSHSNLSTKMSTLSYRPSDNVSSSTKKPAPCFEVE
Description: as §1, §2, §3, §4
To assess the activity of the compounds derived from Cecropia obtusifolia extracts, lyophilized crude extract (and compounds that had been identified in the extract) were dissolved in DMSO at 1 mg/ml, and then further diluted in assay buffer to 100 μg/ml (final concentration) (Caballero-George et al., 4 Curr. Trends Biotechnol Pharm 881-899 (2010)). A […] was then added to each well containing the transiently transfected cells. […]
as §5
(§6) The effects were quantified by calculation of the area under the curves by integration of the obtained transient responses using GraphPad Prism 5™. The activation of the AT1, AT2, or ETB receptors was expressed as a fractional response. […]

[3] = biological target: T3, human ETB receptor (Homo sapiens, UniProt P24530); assay: Aequorin bioluminescence intracellular calcium assay, CHO-AEQ-ETB cells; settings: CHO-AEQ cells expressing ETB; samples 100 μg/ml; compared with 100 nM endothelin 1; FIG. 20
T3 construct: pcDNA3.1+ plasmid DNA into which had been inserted the coding region for human AT1, AT2, or ETB receptor; expressed in transfected cells; host or cells: CHO-AEQ (Chinese hamster ovary cells stably expressing aequorin), transient transfection with Fugene HD
T3 sequence (P24530 27-442): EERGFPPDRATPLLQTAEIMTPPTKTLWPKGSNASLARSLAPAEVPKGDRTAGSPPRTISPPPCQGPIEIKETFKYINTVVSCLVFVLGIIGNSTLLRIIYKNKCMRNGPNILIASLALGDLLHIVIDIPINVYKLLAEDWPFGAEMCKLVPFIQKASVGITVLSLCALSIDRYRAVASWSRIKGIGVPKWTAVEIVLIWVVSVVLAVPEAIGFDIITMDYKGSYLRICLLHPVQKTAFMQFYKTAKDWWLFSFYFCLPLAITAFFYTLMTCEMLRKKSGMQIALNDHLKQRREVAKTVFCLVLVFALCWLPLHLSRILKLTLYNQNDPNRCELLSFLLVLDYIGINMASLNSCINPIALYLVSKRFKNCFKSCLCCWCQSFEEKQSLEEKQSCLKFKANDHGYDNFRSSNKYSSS
Description: as §1
More particularly, CHO-AEQ cells were cultured in Dulbecco's Modified Eagle's Medium (DMEM) containing 10% fetal bovine serum as previously described (Vanderheyden et al., 126 Br J Pharmacol 1057-1065 (1999)). At 75% confluency, these cells were transiently transfected with pcDNA3.1+ plasmid DNA into which had been inserted the coding region for human AT1, AT2, or ETB receptor. […]
Intracellular calcium can be detected based on the interaction of calcium ions with the calcium binding bioluminescent complex aequorin. […]
as §5, §6

Molecule	activation of the AT2 receptor (cytoplasmic calcium release) [1]	inhibition of the agonistic effect of angiotensin II on the AT1 receptor [2]	cytoplasmic calcium release after binding to the ETB receptors [3]
O=C(/C=C/c1ccc(O)c(O)c1)O[C@@H]1C[C@](O)(C(=O)O)C[C@@H](O)[C@H]1O [Compound P2, chlorogenic acid]	approximately half of the activity of the extract	less than half of the effect of Fraction 3-4	
O=c1cc(-c2ccc(O)c(O)c2)oc2cc(O)c(C3OC(CO)C(O)C(O)C3OC3OCC(O)C(O)C3O)c(O)c12 (stereo not drawn) [Compound P4, isoorientin-2″-O-xyloside]	approximately half of the activity of the extract	less than half of the effect of Fraction 3-4	
O=c1cc(-c2ccc(O)cc2)oc2cc(O)c(C3OC(CO)C(O)C(O)C3OC3OC(CO)C(O)C(O)C3O)c(O)c12 (stereo not drawn) [Compound P7, isovitexin-2″-O-glucoside]	approximately half of the activity of the extract	less than half of the effect of Fraction 3-4	
O=c1cc(-c2ccc(O)cc2)oc2cc(O)c(C3OC(CO)C(O)C(O)C3OC3OCC(O)C(O)C3O)c(O)c12 (stereo not drawn) [Compound P8, isovitexin-2″-O-xyloside]	approximately half of the activity of the extract	less than half of the effect of Fraction 3-4	
CC1OC(OC2C(c3c(O)cc4oc(-c5ccc(O)cc5)cc(=O)c4c3O)OC(CO)C(O)C2O)C(O)C(O)C1O (stereo not drawn) [Compound P9, isovitexin-2″-O-rhamnoside]	approximately half of the activity of the extract	less than half of the effect of Fraction 3-4	
isovitexin-O-xyloside [Compound P6]	approximately half of the activity of the extract		the most active sample tested
